Laboratory results taken from the NIST ThermoML archive (doi:10.1016/j.jct.2017.03.021).
Where “and” joins values, the source holds several entries; their conditions need not be identical. Identical values can stand only once. ± gives the expanded uncertainty stated by the source.

Columns and labels:
[1] = Crystal; for vapor or sublimation pressure: Calculated from knudsen effusion weight loss
[2] = Molar enthalpy of transition or fusion; conditions: Crystal; DSC

In the case of O=Cc1ccc2c(c1)Cc1ccccc1-2 [9H-fluorene-2-carbaldehyde], the “vapor or sublimation pressure” value ([1]; 335.16 K) is reported as 0.000121 ± 2e-05 kPa and 0.00012 ± 2e-05 kPa, the “vapor or sublimation pressure” value ([1]; 337.16 K) is reported as 0.000147 ± 2.1e-05 kPa and 0.000149 ± 2.1e-05 kPa and 0.000144 ± 2.1e-05 kPa and the “vapor or sublimation pressure” value ([1]; 339.09 K) is reported as 0.000186 ± 2.1e-05 kPa and 0.000185 ± 2.1e-05 kPa. For the same molecule, the “vapor or sublimation pressure” value ([1]; 341.11 K) was 0.000231 ± 2.2e-05 kPa and 0.000233 ± 2.2e-05 kPa, the “vapor or sublimation pressure” value ([1]; 341.16 K) was 0.000227 ± 2.2e-05 kPa and the “vapor or sublimation pressure” value ([1]; 343.08 K) was 0.000288 ± 2.2e-05 kPa and 0.000289 ± 2.2e-05 kPa. For the same molecule, the “vapor or sublimation pressure” value ([1]; 343.14 K) was 0.000288 ± 2.2e-05 kPa, the “vapor or sublimation pressure” value ([1]; 345.09 K) was 0.00036 ± 2.4e-05 kPa and 0.000361 ± 2.4e-05 kPa and 0.000364 ± 2.4e-05 kPa and the “vapor or sublimation pressure” value ([1]; 347.16 K) was 0.000444 ± 2.5e-05 kPa and 0.000463 ± 2.6e-05 kPa. For the same molecule, the “vapor or sublimation pressure” value ([1]; 349.11 K) was 0.000553 ± 2.8e-05 kPa and 0.00054 ± 2.8e-05 kPa and 0.000557 ± 2.8e-05 kPa, the “vapor or sublimation pressure” value ([1]; 351.09 K) was 0.000685 ± 3.1e-05 kPa and 0.000687 ± 3.2e-05 kPa and 0.000681 ± 3.1e-05 kPa and the “vapor or sublimation pressure” value ([1]; 353.1 K) was 0.000861 ± 3.6e-05 kPa and 0.000847 ± 3.6e-05 kPa and 0.000859 ± 3.6e-05 kPa. For the same molecule, the “vapor or sublimation pressure” value ([1]; 355.09 K) was 0.001048 ± 8.2e-05 kPa and 0.001057 ± 8.3e-05 kPa and 0.001075 ± 8.5e-05 kPa, the Normal melting temperature ([1]; DTA) was 84.5 ± 0.4 °C and the “Molar enthalpy of transition or fusion” value [2] was 5.26 ± 0.143 kcal/mol.
